Test results as given in US20220324835A1 (Nurix Therapeutics, Inc., priority 2018, published 2022).
Where two headings read alike, the source gives them in different places.

Assays:
primary human B cells = test: B cell activation assay (CD69 on anti-IgM stimulated B cells); type: cell-based; settings: AUC of dose response curve (10 μM to 1 nM) of CD69 MFI normalized to DMSO control
How it was run: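 Negatively selected PBMC-derived B cells (>95% CD20+) treated with Cbl-b inhibitors from 10 μM to 1 nM (DMSO <0.5%) and stimulated with anti-IgM for 20 h at 37° C. CD69 MFI on CD20+ IgD+ cells by flow cytometry; dose-response AUC normalized to DMSO plus 2.5 μg/mL anti-IgM-F(ab′)2, binned A-D.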

[1] = system: primary human total T-cells; test: T-cell activation assessed by cytokine secretion (GM-CSF, IFNγ, TNFα); type: cell-based
How it was run: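 Readouts are fold change versus compound-free cells under the same stimulation: plate-bound anti-CD3 (OKT3, 10 μg/mL coating) alone or with soluble anti-CD28 at 5 μg/mL, for 48 h. Isolated human total T cells (1×10^5/well) got inhibitor 1 h beforehand at concentrations such as 10, 1.11 or 0.123 μM. Measured: GM-CSF/IFNγ/TNFα secretion, surface CD69, proliferation by dye dilution.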

[2] = CD3/CD28 stimulation, read-out: GM-CSF secretion
[3] = CD3/CD28 stimulation, read-out: IFNγ secretion
[4] = CD3/CD28 stimulation, read-out: TNFα secretion
[5] = CD3 alone stimulation, read-out: GM-CSF secretion
[6] = CD3 alone stimulation, read-out: IFNγ secretion
[7] = CD3 alone stimulation, read-out: TNFα secretion

Structure (SMILES) | CD69 MFI AUC (primary human B cells) | fold induction at 1.11 µM [1, 2] | fold induction at 1.11 µM [1, 3] | fold induction at 1.11 µM [1, 4] | fold induction at 10 µM [1, 2] | fold induction at 10 µM [1, 3] | fold induction at 10 µM [1, 4] | fold induction at 1.11 µM [1, 5] | fold induction at 1.11 µM [1, 6] | fold induction at 1.11 µM [1, 7] | fold induction at 10 µM [1, 5] | fold induction at 10 µM [1, 6] | fold induction at 10 µM [1, 7]
C[C@H](Cc1nncn1C)c1ccnc(NC(=O)c2cccc(C(F)(F)F)n2)c1 [Compound 302, (R)-N-(4-(1-(4-methyl-4H-1,2,4-triazol-3-yl)propan-2-yl)pyridin-2-yl)-6-(trifluoromethyl)picolinamide] | B (B indicates 0.5-1.00) | – | – | – | – | – | – | – | – | – | – | – | –
C[C@H](Cc1nncn1C)c1cccc(NC(=O)c2nc(C(F)(F)F)c[nH]2)c1 [Compound 326, (R)-N-(3-(1-(4-methyl-4H-1,2,4-triazol-3-yl)propan-2-yl)phenyl)-4-(trifluoromethyl)-1H-imidazole-2-carboxamide] | A (A indicates ≤0.5) | 1.51 to 2 | < 2 | ≤ 1.5 | 2.01 to 4 | 2.01 to 3 | 2.01 to 4 | 1.51 to 2 | < 2 | ≤ 1.5 | 2.01 to 4 | 2.01 to 3 | 1.51 to 2
C[C@H](Sc1nncn1C)c1cccc(NC(=O)c2cc(C(=O)N3CC[C@H](O)C3)ccn2)c1 [Compound 140, 4-[[(3S)-3-hydroxypyrrolidin-1-yl]carbonyl]-N-[3-[(1S)-1-[(4-methyl-4H-1,2,4-triazol-3-yl)sulfanyl]ethyl]phenyl]pyridine-2-carboxamide] | A (A indicates ≤0.5) | 2.01 to 4 | 2.01 to 3 | 2.01 to 4 | > 4 | > 4 | 2.01 to 4 | 2.01 to 4 | 3.01 to 4 | 1.51 to 2 | 2.01 to 4 | > 4 | 2.01 to 4
Cc1cc2c(c(C3CC3)n1)CN(c1cccc([C@H](C)Cc3nncn3C)c1)C2=O [Compound 372, 4-cyclopropyl-6-methyl-2-{3-[(2R)-1-(4-methyl-4H-1,2,4-triazol-3-yl)propan-2-yl]phenyl}-1H,2H,3H-pyrrolo[3,4-c]pyridin-1-one] | A (A indicates ≤0.5) | ≤ 1.5 | < 2 | ≤ 1.5 | 2.01 to 4 | < 2 | 2.01 to 4 | ≤ 1.5 | < 2 | ≤ 1.5 | 1.51 to 2 | < 2 | ≤ 1.5
C[C@H](Cc1nncn1C)c1cccc(N2Cc3c(ccnc3C3CC3)C2=O)c1 [Compound 257, 4-cyclopropyl-2-[3-[(1R)-1-methyl-2-(4-methyl-1,2,4-triazol-3-yl)ethyl]phenyl]-3H-pyrrolo[3,4-c]pyridin-1-one] | B (B indicates 0.5-1.00) | 2.01 to 4 | < 2 | 1.51 to 2 | > 4 | 2.01 to 3 | 2.01 to 4 | 1.51 to 2 | < 2 | ≤ 1.5 | 2.01 to 4 | 2.01 to 3 | ≤ 1.5
C[C@H](Cc1nncn1C)c1cccc(NC(=O)c2cccc(CCO)n2)c1 [Compound 202, 6-(2-hydroxyethyl)-N-[3-[(2R)-1-(4-methyl-4H-1,2,4-triazol-3-yl)propan-2-yl]phenyl]pyridine-2-carboxamide] | C (C indicates 1.01-1.50) | ≤ 1.5 | < 2 | ≤ 1.5 | 1.51 to 2 | > 4 | 1.51 to 2 | ≤ 1.5 | < 2 | ≤ 1.5 | 1.51 to 2 | < 2 | ≤ 1.5
CNCc1ccc(C(=O)Nc2cccc([C@H](C)Cc3nncn3C)c2)nc1C1CC1 [Compound 376, (R)-6-cyclopropyl-N-(3-(1-(4-methyl-4H-1,2,4-triazol-3-yl)propan-2-yl)phenyl)-5-((methylamino)methyl)picolinamide] | B (B indicates 0.5-1.00) | 2.01 to 4 | < 2 | 2.01 to 4 | > 4 | < 2 | 2.01 to 4 | 1.51 to 2 | 2.01 to 3 | ≤ 1.5 | 2.01 to 4 | 3.01 to 4 | 1.51 to 2
Cn1cnnc1[C@@H]1C[C@@H]1c1cccc(N2Cc3c(ccnc3C(F)(F)F)C2=O)c1 [Compound 369, 2-{3-[(1S,2R)-2-(4-methyl-4H-1,2,4-triazol-3-yl)cyclopropyl]phenyl}-4-(trifluoromethyl)-1H,2H,3H-pyrrolo[3,4-c]pyridin-1-one] | C (C indicates 1.01-1.50) | ≤ 1.5 | < 2 | ≤ 1.5 | 2.01 to 4 | < 2 | 2.01 to 4 | ≤ 1.5 | < 2 | ≤ 1.5 | ≤ 1.5 | < 2 | 1.51 to 2
Cn1cnnc1[C@@H]1C[C@@H]1c1cccc(N2Cc3c(cccc3C(F)(F)F)C2=O)c1 [Compound 282, 2-(3-((1S,2R)-2-(4-methyl-4H-1,2,4-triazol-3-yl)cyclopropyl)phenyl)-4-(trifluoromethyl)isoindolin-1-one] | B (B indicates 0.5-1.00) | 1.51 to 2 | < 2 | ≤ 1.5 | 2.01 to 4 | 2.01 to 3 | 2.01 to 4 | ≤ 1.5 | < 2 | ≤ 1.5 | 2.01 to 4 | 2.01 to 3 | ≤ 1.5
